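These data come from cells grown in 96-well plates and exposed to compound for 48 hours at five concentrations. GI50 is the concentration that inhibits growth by half.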 The source made the active and inactive calls. No stated cut-off is given here; in the data, active = GI50 up to about 1.1 µM and inactive = higher.
Experiments:
Assay in all cases: growth of human tumour cells (NCI), 48 h
786-0 = system: 786-0
MDA-MB-435 = system: MDA-MB-435
BT-549 = system: BT-549
DU-145 = system: DU-145
DMS-114 = system: DMS-114
XF498 = system: XF498
SNB-78 = system: SNB-78
LXFL 529 = system: LXFL 529
RXF 631 = system: RXF 631

SMILES | GI50 (786-0) | GI50 (MDA-MB-435) | GI50 (BT-549) | GI50 (DU-145) | GI50 (DMS-114) | GI50 (XF498) | GI50 (SNB-78) | GI50 (LXFL 529) | GI50 (RXF 631)
O=C(O)c1cc(-c2ccc3cc4c(cc3c2)OCO4)nc2ccccc12 | 30.7 µM (inactive) | 85.3 µM (inactive) | 22.8 µM (inactive) | 63.4 µM (inactive) | – | – | – | – | –
CCC1(OC(=O)CN)C(=O)OCc2c1cc1n(c2=O)Cc2cc3ccccc3nc2-1 (stereo not given) | 0.01 µM (active) | 0.0564 µM (active) | 0.0593 µM (active) | 0.01 µM (active) | 0.00989 µM (active) | 0.147 µM (active) | 0.738 µM (active) | 0.546 µM (active) | –
CCN1CCC(O)(/C=C/c2ccc(C)cc2)C(C(=O)/C=C/c2ccc(C)cc2)C1 (stereo not given) | 2.08 µM (inactive) | 2.93 µM (inactive) | 3.5 µM (inactive) | 11.8 µM (inactive) | – | – | – | – | –
CCCS(=O)(=O)O | – | > 100 µM (inactive) | > 100 µM (inactive) | > 100 µM (inactive) | – | – | – | – | –
O=C1CN2C(Cl)(Cl)C2(c2ccccc2)c2cc(Cl)ccc2N1CC1CC1 (stereo not given) | – | – | – | – | 36.2 µM (inactive) | – | – | 42.4 µM (inactive) | –
COc1ccc(C2N(NC(=O)c3ccncc3)C(=O)CS2(=O)=O)cc1F (stereo not given) | – | – | – | – | > 100 µM (inactive) | > 100 µM (inactive) | > 100 µM (inactive) | > 100 µM (inactive) | > 100 µM (inactive)
O=c1ccc2cc3ccc4cccc5ccc(c2o1)c3c45 | – | – | – | – | 33 µM (inactive) | 12 µM (inactive) | > 100 µM (inactive) | 45 µM (inactive) | 80 µM (inactive)
Cc1ccc(NC(=S)NNC(=O)c2cc(-c3ccccc3)nc3ccccc23)cc1C | 16.3 µM (inactive) | 24 µM (inactive) | 18.7 µM (inactive) | 22.4 µM (inactive) | – | – | – | – | –
O=C(NC1C/C(=N/O)c2c(Br)sc(Br)c21)C(F)(F)F (stereo not given) | 18.2 µM (inactive) | 47.2 µM (inactive) | 32.1 µM (inactive) | 27.5 µM (inactive) | – | – | – | – | –
C=CCNC(=O)N(CCC)CCCCC(NC(C)=O)C(=O)NCc1ccccc1 (stereo not given) | > 100 µM (inactive) | – | – | – | > 100 µM (inactive) | > 100 µM (inactive) | – | > 100 µM (inactive) | –
COc1ccc(C(CC(=O)c2ccc(O)cc2)C(C(=O)c2ccc(O)cc2)C(c2ccc(OC)cc2)C2C(=O)NC(=S)NC2=O)cc1 (stereo not given) | 20.6 µM (inactive) | 25.5 µM (inactive) | 18.5 µM (inactive) | 14.9 µM (inactive) | – | – | – | – | –
CC(C)(C)C(=O)OCC1C(=O)OCC1C(=O)N1Cc2cc3ccccc3nc2C1 (stereo not given) | 2.5 µM (inactive) | 3.9 µM (inactive) | 3.14 µM (inactive) | 16.4 µM (inactive) | 4.81 µM (inactive) | – | 1.53 µM (inactive) | 1.47 µM (inactive) | –
Cc1nnc(Nc2ccc(Cl)cc2)o1 | > 10 µM (inactive) | > 10 µM (inactive) | – | > 10 µM (inactive) | – | – | – | – | –
Cc1ccc(CCC(=O)C(=O)O)s1 | – | – | – | – | > 100 µM (inactive) | > 100 µM (inactive) | > 100 µM (inactive) | > 100 µM (inactive) | > 100 µM (inactive)
CC(C)OP(=O)(OC(C)C)c1nn(-c2ccc([N+](=O)[O-])cc2)c(=N)s1 | – | – | – | – | 56.9 µM (inactive) | 89.5 µM (inactive) | – | – | –
NC1CCCCC1 | – | – | – | – | > 56.2 µM (inactive) | – | 292 µM (inactive) | – | –

SMILES | GI50 (786-0) | GI50 (MDA-MB-435) | GI50 (BT-549) | GI50 (DU-145) | GI50 (DMS-114) | GI50 (XF498) | GI50 (SNB-78) | GI50 (LXFL 529) | GI50 (RXF 631)
CC(=O)[C@H]1CCC2[C@@H]3CC=C4C(O)C(OS(=O)(=O)O)CC[C@]4(C)C3CC[C@@]21C (stereo not given in full) | – | – | – | – | > 100 µM (inactive) | – | > 100 µM (inactive) | – | –
O=C(N/N=C/C=C/c1ccccc1)[C@H](O)[C@@H](O)C(=O)N/N=C/C=C/c1ccccc1 | – | – | – | – | > 100 µM (inactive) | – | > 100 µM (inactive) | > 100 µM (inactive) | –
CO[C@H]1C=C[C@@]23c4cc5c(cc4CO[C@]2(O)CN(C)[C@H]3C1)OCO5 | > 100 µM (inactive) | > 100 µM (inactive) | > 100 µM (inactive) | > 100 µM (inactive) | – | – | – | – | –
CC1C(=O)N(c2ccccc2)NC12CCCc1ccccc12 (stereo not given) | – | > 100 µM (inactive) | > 100 µM (inactive) | > 100 µM (inactive) | – | – | – | – | –
C=CC(=O)NC(O)(C(=O)OCC)C(F)(F)F (stereo not given) | – | > 100 µM (inactive) | > 100 µM (inactive) | > 100 µM (inactive) | – | – | – | – | –
CN(C)c1ccc(/C=C2/SC(=S)NC2=O)cc1 | > 100 µM (inactive) | > 100 µM (inactive) | > 100 µM (inactive) | > 100 µM (inactive) | – | – | – | – | –
Cc1[nH]c2ncn(/N=C/c3ccccc3O)c(=N)c2c1Cc1ccccc1 | 81.8 µM (inactive) | 18.5 µM (inactive) | 37.2 µM (inactive) | > 100 µM (inactive) | – | – | – | – | –
O=C1CCC(c2ccccc2)=NN1c1nsc2ccccc12 | – | – | – | – | 62.7 µM (inactive) | – | > 100 µM (inactive) | > 100 µM (inactive) | –
CC(SC(=S)N1CCOCC1)C(=O)Nc1nnc(-c2ccc(Cl)cc2)o1 (stereo not given) | 27.9 µM (inactive) | 40.2 µM (inactive) | > 100 µM (inactive) | 79.6 µM (inactive) | – | – | – | – | –
Cc1cc2c(ccc[n+]2[O-])[n+]([O-])c1 | – | – | – | – | > 100 µM (inactive) | > 100 µM (inactive) | > 100 µM (inactive) | > 100 µM (inactive) | –
CCCCC1(N=[N+]=[N-])C(=O)c2cccc3c2N(CCC3)C1=O (stereo not given) | > 100 µM (inactive) | > 100 µM (inactive) | > 100 µM (inactive) | > 100 µM (inactive) | – | – | – | – | –
COc1cc([C@@H]2c3cc4c(cc3[C@@H](c3c(O)cc(O)c5c3O[C@H](c3ccc(O)c(O)c3)[C@@H](O)C5)[C@H]3COC(=O)[C@H]23)OCO4)cc(OC)c1O | > 100 µM (inactive) | > 100 µM (inactive) | > 100 µM (inactive) | > 100 µM (inactive) | – | – | – | – | –
COc1ccc(/C=N/n2c(C)nc3c(sc(=S)n3-c3ccccc3)c2=O)cc1 | – | – | – | – | – | – | – | 49 µM (inactive) | –
O=C(O)c1ccc(NS(=O)(=O)Cc2ccccc2)cc1 | > 100 µM (inactive) | > 100 µM (inactive) | > 100 µM (inactive) | > 100 µM (inactive) | – | – | – | – | –
NC(Cc1c[nH]c2ccccc12)C(=O)O (stereo not drawn) [DL-TRYPTOPHAN] | – | – | – | – | > 300 µM (inactive) | – | > 300 µM (inactive) | – | –

Reference: ChEMBL document CHEMBL1201862, “PubChem BioAssay data set” (2004)
